The assay addresses T1, JAK3 (Homo sapiens, UniProt P52333).
T1 construct: endogenous in cells; host or cells: mixed Molt4/Ramos lysate (1:2)
T1 sequence (P52333 1-1124): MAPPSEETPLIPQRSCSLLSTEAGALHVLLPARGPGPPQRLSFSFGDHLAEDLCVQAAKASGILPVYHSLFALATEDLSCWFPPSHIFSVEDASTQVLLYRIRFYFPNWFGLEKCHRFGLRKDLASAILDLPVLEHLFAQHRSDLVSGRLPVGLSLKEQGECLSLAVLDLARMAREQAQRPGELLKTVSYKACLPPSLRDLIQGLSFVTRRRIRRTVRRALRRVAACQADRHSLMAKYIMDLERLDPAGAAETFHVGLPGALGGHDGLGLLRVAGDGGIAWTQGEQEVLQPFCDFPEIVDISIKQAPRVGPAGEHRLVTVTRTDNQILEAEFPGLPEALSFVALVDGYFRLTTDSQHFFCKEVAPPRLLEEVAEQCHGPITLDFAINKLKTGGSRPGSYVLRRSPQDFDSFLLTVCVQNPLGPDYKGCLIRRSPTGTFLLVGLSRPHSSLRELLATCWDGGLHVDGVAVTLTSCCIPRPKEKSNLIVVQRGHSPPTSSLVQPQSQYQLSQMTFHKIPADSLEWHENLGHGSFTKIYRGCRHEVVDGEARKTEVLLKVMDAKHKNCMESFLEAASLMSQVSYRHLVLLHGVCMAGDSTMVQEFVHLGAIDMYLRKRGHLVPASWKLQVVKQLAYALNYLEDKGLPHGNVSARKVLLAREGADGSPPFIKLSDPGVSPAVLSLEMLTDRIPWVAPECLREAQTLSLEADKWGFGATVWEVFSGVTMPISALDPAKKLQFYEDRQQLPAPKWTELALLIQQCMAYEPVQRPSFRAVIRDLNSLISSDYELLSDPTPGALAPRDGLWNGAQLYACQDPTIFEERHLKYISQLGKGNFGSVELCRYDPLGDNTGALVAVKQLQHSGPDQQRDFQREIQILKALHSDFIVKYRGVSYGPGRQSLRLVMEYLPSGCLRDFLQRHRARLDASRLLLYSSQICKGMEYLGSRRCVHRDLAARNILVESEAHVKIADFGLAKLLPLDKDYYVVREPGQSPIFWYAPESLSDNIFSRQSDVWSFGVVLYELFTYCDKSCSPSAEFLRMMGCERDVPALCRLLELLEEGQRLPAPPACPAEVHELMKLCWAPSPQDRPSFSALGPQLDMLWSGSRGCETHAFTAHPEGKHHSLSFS
The experiment in a line: Kinobeads assay, JAK3. It counts as binding. As to conditions: mixed Molt4/Ramos lysate, read-out: Inhibition values (IC50) JAK3. As for the experimental part:
The compounds of the present invention as described in the previous examples were tested in a Kinobeads™ assay as described for ZAP-70 (WO-A 2007/137867). Briefly, test compounds (at various concentrations) and the affinity matrix with the immobilized aminopyrido-pyrimidine ligand 24 were added to cell lysate aliquots and allowed to bind to the proteins in the lysate sample. After the incubation time the beads with captured proteins were separated from the lysate. Bound proteins were then eluted and the presence of JAK2 and JAK3 was detected and quantified using specific antibodies in a dot blot procedure and the Odyssey infrared detection system. Dose response curves for individual kinases were generated and IC50 values calculated. Kinobeads™ assays for ZAP-70 (WO-A 2007/137867) and for kinase selectivity profiling (WO-A 2006/134056) have been previously described.
The affinity matrix was washed two times with 15 mL of 1×DP buffer containing 0.2% NP40 (IGEPAL® CA-630, Sigma, #I3021) and then resuspended in 1×DP buffer containing 0.2% NP40 (3% beads slurry).
5×DP buffer 250 mM Tris-HCl pH 7.4, 25% Glycerol, 7.5 mM MgCl2, 750 mM NaCl, 5 mM Na3VO4; filter the 5×DP buffer through a 0.22 μm filter and store in aliquots at −80° C. The 5×DP buffer is diluted with H2O to 1×DP buffer containing 1 mM DTT and 25 mM NaF.
Stock solutions of test compounds were prepared in DMSO. In a 96 well plate 30 μL solution of diluted test compounds at 5 mM in DMSO were prepared. Starting with this solution a 1:3 dilution series (9 steps) was prepared. For control experiments (no test compound) a buffer containing 2% DMSO was used.
Molt4 cells (ATCC catalogue number CRL-1582) and Ramos cells (ATCC catalogue number CRL-1596) were grown in 1 L Spinner flasks (Integra Biosciences, #182101) in suspension in RPMI 1640 medium (Invitrogen, #21875-034) supplemented with 10% Fetal Bovine Serum (Invitrogen) at a density between 0.15×106 and 1.2×10^6 cells/mL. Cells were harvested by centrifugation, washed once with 1×PBS buffer (Invitrogen, #14190-094) and cell pellets were frozen in liquid nitrogen and subsequently stored at −80° C. Cells were homogenized in a Potter S homogenizer in lysis buffer: 50 mM Tris-HCl, 0.8% NP40, 5% glycerol, 150 mM NaCl, 1.5 mM MgCl2, 25 mM NaF, 1 mM sodium vanadate, 1 mM DTT, pH 7.5. One complete EDTA-free tablet (protease inhibitor cocktail, Roche Diagnostics, 1873580) per 25 mL buffer was added. The material was dounced 10 times using a mechanized POTTER S, transferred to 50 mL falcon tubes, incubated for 30 minutes on ice and spun down for 10 minutes at 20,000 g at 4° C. (10,000 rpm in Sorvall SLA600, precooled). The supernatant was transferred to an ultracentrifuge (UZ)-polycarbonate tube (Beckmann, 355654) and spun for 1 hour at 100,000 g at 4° C. (33.500 rpm in Ti50.2, precooled). The supernatant was transferred again to a fresh 50 mL falcon tube, the protein concentration was determined by a Bradford assay (BioRad) and samples containing 50 mg of protein per aliquot were prepared. The samples were immediately used for experiments or frozen in liquid nitrogen and stored frozen at −80° C.
Cell lysate (approximately 50 mg protein per plate) was thawed in a water bath at room temperature and then stored on ice. To the thawed cell lysate 1×DP 0.8% NP40 buffer containing protease inhibitors (1 tablet for 25 mL buffer; EDTA-free protease inhibitor cocktail; Roche Diagnostics 1873580) was added in order to reach a final protein concentration of 10 mg/mL total protein. The diluted cell lysate was stored on ice. Mixed Molt4/Ramos lysate was prepared by combining one volume of Molt4 lysate and two volumes of Ramos lysate (ratio 1:2).
To a 96 well filter plate (Multiscreen HTS, BV Filter Plates, Millipore #MSBVN1250) were added per well: 100 μL affinity matrix (3% beads slurry), 3 μL of compound solution, and 50 μL of diluted lysate. […]

Consider `Cc1c(Cn2ncc3cnc(Nc4cnn(C)c4)nc32)cccc1N1CCOCC1` [Example 11, N-(1-Methyl-1H-pyrazol-4-yl)-1-(2-methyl-3-morpholinobenzyl)-1H-pyrazolo[3,4-d]pyrimidin-6-amine], for which the IC50 was below 0.1 µM.
As for `O=C(c1cc(F)c(F)c(Cn2ncc3cnc(Nc4cnn(CCO)c4)nc32)c1F)N1CCOCC1` [Example 111, morpholino(2,4,5-trifluoro-3-((6-((1-(2-hydroxyethyl)-1H-pyrazol-4-yl)amino)-1H-pyrazolo[3,4-d]pyrimidin-1-yl)methyl)phenyl)methanone], the figure is below 0.1 µM.
`Cn1cc(Nc2ncc3cnn(Cc4cccc(N5CC6(COC6)C5)c4)c3n2)cn1` [Example 89, 1-(3-(2-oxa-6-azaspiro[3.3]heptan-6-yl)benzyl)-N-(1-methyl-1H-pyrazol-4-yl)-1H-pyrazolo[3,4-d]pyrimidin-6-amine]: the IC50 was below 0.1 µM.
In the case of `Cn1cc(Nc2ncc3cnn(Cc4cccc(N5CC6(COC6)C5)c4F)c3n2)cn1` [Example 91, 1-(2-fluoro-3-(2-oxa-6-azaspiro[3.3]heptan-6-yl)benzyl)-N-(1-methyl-1H-pyrazol-4-yl)-1H-pyrazolo[3,4-d]pyrimidin-6-amine], the half-maximal inhibitory concentration (IC50) was below 0.1 µM.
With `Cn1cc(Nc2ncc3cnn(Cc4c(F)c(F)cc(N5CCOCC5)c4F)c3n2)cn1` [Example 17, N-(1-Methyl-1H-pyrazol-4-yl)-1-(2,3,6-trifluoro-5-morpholinobenzyl)-1H-pyrazolo[3,4-d]pyrimidin-6-amine], the half-inhibitory concentration (IC50) is below 0.1 µM.
As for `CCOC(=O)C1CCCN(c2cccc(Cn3ncc4cnc(Nc5cnn(C)c5)nc43)c2)C1` (stereo not shown) [Example 13, Ethyl 1-(3-((6-((1-methyl-1H-pyrazol-4-yl)amino)-1H-pyrazolo[3,4-d]pyrimidin-1-yl)methyl)phenyl)piperidine-3-carboxylate], the IC50 was in the range of 0.1 to 1 µM.
On to `OCCn1cc(Nc2ncc3cnn(Cc4cccc(N5CCOCC5)c4F)c3n2)cn1` [Example 39, 2-(4-((1-(2-Fluoro-3-morpholinobenzyl)-1H-pyrazolo[3,4-d]pyrimidin-6-yl)amino)-1H-pyrazol-1-yl)ethanol], for which the half-maximal inhibitory concentration (IC50) is below 0.1 µM.
For `Cn1cc(Nc2ncc3cnn(Cc4cccc(N5CCC(=O)CC5)c4)c3n2)cn1` [Example 108, 1-(3-((6-((1-methyl-1H-pyrazol-4-yl)amino)-1H-pyrazolo[3,4-d]pyrimidin-1-yl)methyl)phenyl)piperidin-4-one] the value was below 0.1 µM; for `CNC(=O)CCn1cc(Nc2ncc3cnn(Cc4cccc(N5CCOCC5)c4)c3n2)cn1` [Example 24, N-Methyl-3-(4-((1-(3-morpholinobenzyl)-1H-pyrazolo[3,4-d]pyrimidin-6-yl)amino)-1H-pyrazol-1-yl)propanamide], below 0.1 µM.
Consider `Cn1cc(Nc2ncc3cnn(Cc4cccc(N5CCOCC5=O)c4F)c3n2)cn1` [Example 40, 4-(2-Fluoro-3-((6-((1-methyl-1H-pyrazol-4-yl)amino)-1H-pyrazolo[3,4-d]pyrimidin-1-yl)methyl)phenyl)morpholin-3-one], for which the IC50 was below 0.1 µM.
For `CN(C)CC(O)Cn1cc(Nc2ncc3cnn(Cc4cccc(N5CCOCC5)c4)c3n2)cn1` (stereo not shown) [Example 33, 1-(Dimethylamino)-3-(4-((1-(3-morpholinobenzyl)-1H-pyrazolo[3,4-d]pyrimidin-6-yl)amino)-1H-pyrazol-1-yl)propan-2-ol], the IC50 was below 0.1 µM.
With `Cn1cc(Nc2ncc3cnn(Cc4cc(F)cc(N5CCNCC5)c4F)c3n2)cn1` [Example 95, 1-(2,5-difluoro-3-(piperazin-1-yl)benzyl)-N-(1-methyl-1H-pyrazol-4-yl)-1H-pyrazolo[3,4-d]pyrimidin-6-amine], the IC50 was below 0.1 µM.
Consider `NCCCn1cc(Nc2ncc3cnn(Cc4cccc(N5CCOCC5)c4)c3n2)cn1` [Example 34, N-(1-(3-Aminopropyl)-1H-pyrazol-4-yl)-1-(3-morpholinobenzyl)-1H-pyrazolo[3,4-d]pyrimidin-6-amine], for which the IC50 is below 0.1 µM.
Turning to `N#CCCn1cc(Nc2ncc3cnn(Cc4cc(F)cc(N5CCOCC5=O)c4)c3n2)cn1` [Example 107, 3-(4-((1-(3-fluoro-5-(3-oxomorpholino)benzyl)-1H-pyrazolo[3,4-d]pyrimidin-6-yl)amino)-1H-pyrazol-1-yl)propanenitrile], the IC50 is below 0.1 µM.
For `C[C@H]1COCCN1c1cccc(Cn2ncc3cnc(Nc4cnn(C)c4)nc32)c1` [Example 112, (S)-N-(1-methyl-1H-pyrazol-4-yl)-1-(3-(3-methylmorpholino)benzyl)-1H-pyrazolo[3,4-d]pyrimidin-6-amine], the IC50 is below 0.1 µM.
Turning to `OCCn1cc(Nc2ncc3cnn(Cc4cc(F)cc(N5CCNCC5)c4F)c3n2)cn1` [Example 96, 2-(4-((1-(2,5-difluoro-3-(piperazin-1-yl)benzyl)-1H-pyrazolo[3,4-d]pyrimidin-6-yl)amino)-1H-pyrazol-1-yl)ethanol], the IC50 was below 0.1 µM.
For the compound `Cn1cc(Nc2ncc3cnn(Cc4c(F)c(F)cc(C(=O)N5CCOCC5)c4F)c3n2)cn1` [Example 110, morpholino(2,4,5-trifluoro-3-((6-((1-methyl-1H-pyrazol-4-yl)amino)-1H-pyrazolo[3,4-d]pyrimidin-1-yl)methyl)phenyl)methanone], the concentration for half-maximal inhibition (IC50) is below 0.1 µM.
As for `Cn1cc(Nc2ncc3cnn(Cc4cccc(N5CCNCC5=O)c4)c3n2)cn1` [Example 36, 1-(3-((6-((1-Methyl-1H-pyrazol-4-yl)amino)-1H-pyrazolo[3,4-d]pyrimidin-1-yl)methyl)phenyl)piperazin-2-one], the figure is below 0.1 µM; as for `Cn1cc(Nc2ncc3cnn(Cc4cccc(C5CCOCC5)c4)c3n2)cn1` [Example 9, N-(1-Methyl-1H-pyrazol-4-yl)-1-(3-(tetrahydro-2H-pyran-4-yl)benzyl)-1H-pyrazolo[3,4-d]pyrimidin-6-amine], below 0.1 µM.

In general, IC50 refers to the point on the concentration scale where inhibition reaches its midpoint.

For the origin of these results see patent publication US9040545B2, “Heterocyclyl pyrazolopyrimidine analogues as selective JAK inhibitors” (Cellzome Limited, priority 2010, dated 2015).
